Test results as given in patent publication US20200163984A1, “USE OF ISOVALERYL SPIRAMYCIN I, II AND/OR III IN MANUFACTURING MEDICAMENT FOR TREATING AND/OR PREVENTING TUMOR, AND MEDICAMENT” (SHENYANG FUYANG PHARMACEUTICAL TECHNOLOGY CO., LTD., priority 2017, published 2020).

Key:
[1] = Spleen index of A549 lung cancer tumor-bearing mice; settings: n = 6
[2] = tested on: transplanted tumor of human cervical cancer cell HeLa; assay: HeLa transplanted tumor in nude mice; settings: for Tumor Volume (mm3) (d 1): d1
Description: (§1) HeLa cells in a logarithmic growth phase were taken and subjected to a trypan blue exclusion experiment showing that the cell viability was more than 95%, then the cells were subjected to trypsinization, centrifugation, and supernatant removal. Then cell concentration was adjusted to 1×10^7/ml with matrigel, then each nude mouse was inoculated subcutaneously with 0.2 ml of cells at its right armpit and recorded as the first day of inoculation. When the tumor grows to be greater than or equal to 100 mm^3, the mice were randomly divided into 11 groups with 6 mice in each group: a model group, a cyclophosphamide group, isovaleryl spiramycin I groups with doses of 25, 50 and 100 mg/kg, isovaleryl spiramycin II groups with doses of 25, 50 and 100 mg/kg, and isovaleryl spiramycin III groups with doses of 25, 50 and 100 mg/kg. Each group was continuously administered intragastrically for 30 days with a dose of 20 ml/kg. The mice were sacrificed the next day after drug withdrawal and the indicators were tested. The long diameter and short diameter of the tumor, and the body weight of each mouse were recorded every 3 days from drug administration to nude mouse sacrifice.
(§2) The body weight of the nude mice and the long diameter (a) and short diameter (b) of the transplanted tumor were measured every 3 days, and the tumor volume (v), relative tumor volume (RTV) and relative tumor proliferation rate (T/C) are calculated respectively according to the following formulas, wherein V=a×b^2/2; RTV=V/V0 (V0 is the tumor volume before administration, V is the tumor volume before sacrifice), and T/C (%)=treatment group RTV/model control group RTV×100%.
(§3) Each mouse was weighed and sacrificed. After the tumor was completely stripped off from the body of the mouse, the non-tumor tissues such as blood stains and fat were removed to weigh the tumor and calculate the tumor growth inhibition rate. The average tumor weight of each group of mice is used as an indicator of efficacy. Tumor growth inhibition rate (%)=(1−the average tumor weight of the treatment group/the average tumor weight of the model group)×100%.

[3] = tested on: transplanted tumor of human renal cell adenocarcinoma cell 769-P; assay: 769-P transplanted tumor in nude mice; settings: for Tumor Volume (mm3) (d 1): d1
Description: as §1, with “Then” for “HeLa cells in a logarithmic growth phase were taken and subjected to a trypan blue exclusion experiment showing that the cell viability was more than 95%, then the cells were subjected to trypsinization, centrifugation, and supernatant removal. Then”, “the” for “the body”
as §2, §3

[4] = HeLa, high dose (100 mg/kg in method) i.g. 30 days
[5] = HeLa, low dose (25 mg/kg in method) i.g. 30 days
[6] = HeLa, medium dose (50 mg/kg in method) i.g. 30 days
[7] = 769-P, high dose (100 mg/kg in method) i.g. 30 days
[8] = 769-P, low dose (25 mg/kg in method) i.g. 30 days
[9] = 769-P, medium dose (50 mg/kg in method) i.g. 30 days

Compound: CO[C@@H]1[C@@H](O[C@@H]2O[C@H](C)[C@@H](O[C@H]3C[C@@](C)(O)[C@@H](OC(=O)CC(C)C)[C@H](C)O3)[C@H](N(C)C)[C@H]2O)[C@@H](CC=O)C[C@@H](C)[C@@H](O[C@H]2CC[C@H](N(C)C)[C@@H](C)O2)/C=C/C=C/C[C@@H](C)OC(=O)C[C@H]1O [Isovaleryl spiramycin I, isovaleryl spiramycin I]
- Spleen Index (%) ([1]; dose 13 mg/kg): 0.32 ± 0.12%
- Spleen Index (%) ([1]; dose 26 mg/kg): 0.38 ± 0.09%
- Spleen Index (%) ([1]; dose 52 mg/kg): 0.31 ± 0.08%
- Inhibition Rate (%) ([2]; HeLa nude mice, 12.5 mg/kg): 46.69%
- Relative Tumor Proliferation Rate (T/C) ([2]; HeLa nude mice, 12.5 mg/kg): 69.18%
- Relative Tumor Volume (RTV) ([2]; HeLa nude mice, 12.5 mg/kg): 11.47 ± 4.97
- Tumor Weight ([2]; HeLa nude mice, 12.5 mg/kg): 1.03 ± 0.59 g
- Tumor Volume (mm3) (d 1) ([2]; HeLa nude mice, 12.5 mg/kg): 112.43 ± 6.87 mm3
- Tumor Volume (mm3) (d30) ([2]; HeLa nude mice, 12.5 mg/kg): 1287.77 ± 552.57 mm3
- Inhibition Rate (%) ([2]; HeLa nude mice, 25 mg/kg): 51.57%
- Relative Tumor Proliferation Rate (T/C) ([2]; HeLa nude mice, 25 mg/kg): 39.57%
- Relative Tumor Volume (RTV) ([2]; HeLa nude mice, 25 mg/kg): 6.56 ± 0.55
- Tumor Weight ([2]; HeLa nude mice, 25 mg/kg): 0.94 ± 0.48 g
- Tumor Volume (mm3) (d 1) ([2]; HeLa nude mice, 25 mg/kg): 112.78 ± 9.72 mm3
- Tumor Volume (mm3) (d30) ([2]; HeLa nude mice, 25 mg/kg): 738.39 ± 75.32 mm3
- Inhibition Rate (%) ([2]; HeLa nude mice, 50 mg/kg): 65.55%
- Relative Tumor Proliferation Rate (T/C) ([2]; HeLa nude mice, 50 mg/kg): 30.91%
- Relative Tumor Volume (RTV) ([2]; HeLa nude mice, 50 mg/kg): 5.13 ± 0.68
- Tumor Weight ([2]; HeLa nude mice, 50 mg/kg): 0.67 ± 0.09 g
- Tumor Volume (mm3) (d 1) ([2]; HeLa nude mice, 50 mg/kg): 114.15 ± 6.08 mm3
- Tumor Volume (mm3) (d30) ([2]; HeLa nude mice, 50 mg/kg): 588.18 ± 73.34 mm3
- Relative Tumor Proliferation Rate (T/C) [2, 4]: 30.91%
- tumor growth inhibition rate [2, 4]: 65.55%
- Relative Tumor Proliferation Rate (T/C) [2, 5]: 69.18%
- tumor growth inhibition rate [2, 5]: 46.69%
- tumor volume and relative tumor volume compared with the model group ([2]; HeLa, low, medium and high doses, P<0.05): significantly lower
- Relative Tumor Proliferation Rate (T/C) [2, 6]: 39.57%
- tumor growth inhibition rate [2, 6]: 51.57%
- mouse weight compared with the model group ([2]; mouse, in vivo): no significant changes
- Body Weight (g) (d1) ([2]; mouse, in vivo, 12.5 mg/kg): 20.72 ± 0.49 g
- Body Weight (g) (d30) ([2]; mouse, in vivo, 12.5 mg/kg): 21.10 ± 0.68 g
- Body Weight (g) (d1) ([2]; mouse, in vivo, 25 mg/kg): 21.07 ± 0.44 g
- Body Weight (g) (d30) ([2]; mouse, in vivo, 25 mg/kg): 21.23 ± 0.73 g
- Body Weight (g) (d1) ([2]; mouse, in vivo, 50 mg/kg): 20.82 ± 0.72 g
- Body Weight (g) (d30) ([2]; mouse, in vivo, 50 mg/kg): 20.95 ± 0.45 g
- Inhibition Rate (%) ([3]; 769-P nude mice, 25 mg/kg): 33.68%
- Relative Tumor Proliferation Rate (T/C) ([3]; 769-P nude mice, 25 mg/kg): 75.78%
- Relative Tumor Volume (RTV) ([3]; 769-P nude mice, 25 mg/kg): 13.99 ± 3.52
- Tumor Weight ([3]; 769-P nude mice, 25 mg/kg): 1.37 ± 0.55 g
- Tumor Volume (mm3) (d 1) ([3]; 769-P nude mice, 25 mg/kg): 106.47 ± 6.86 mm3
- Tumor Volume (mm3) (d30) ([3]; 769-P nude mice, 25 mg/kg): 1489.03 ± 450.17 mm3
- Inhibition Rate (%) ([3]; 769-P nude mice, 50 mg/kg): 47.33%
- Relative Tumor Proliferation Rate (T/C) ([3]; 769-P nude mice, 50 mg/kg): 57.12%
- Relative Tumor Volume (RTV) ([3]; 769-P nude mice, 50 mg/kg): 10.54 ± 2.65
- Tumor Weight ([3]; 769-P nude mice, 50 mg/kg): 1.09 ± 0.48 g
- Tumor Volume (mm3) (d 1) ([3]; 769-P nude mice, 50 mg/kg): 96.82 ± 8.51 mm3
- Tumor Volume (mm3) (d30) ([3]; 769-P nude mice, 50 mg/kg): 1020.75 ± 282.92 mm3
- Inhibition Rate (%) ([3]; 769-P nude mice, 100 mg/kg): 68.82%
- Relative Tumor Proliferation Rate (T/C) ([3]; 769-P nude mice, 100 mg/kg): 36.88%
- Relative Tumor Volume (RTV) ([3]; 769-P nude mice, 100 mg/kg): 6.81 ± 0.30
- Tumor Weight ([3]; 769-P nude mice, 100 mg/kg): 0.64 ± 0.01 g
- Tumor Volume (mm3) (d 1) ([3]; 769-P nude mice, 100 mg/kg): 103.26 ± 9.71 mm3
- Tumor Volume (mm3) (d30) ([3]; 769-P nude mice, 100 mg/kg): 702.74 ± 37.66 mm3
- Relative Tumor Proliferation Rate (T/C) [3, 7]: 36.88%
- tumor growth inhibition rate [3, 7]: 68.82%
- Relative Tumor Proliferation Rate (T/C) [3, 8]: 75.78%
- tumor growth inhibition rate [3, 8]: 33.68%
- tumor volume and relative tumor volume compared with the model group ([3]; 769-P, low, medium and high doses, P<0.05): significantly lower
- Relative Tumor Proliferation Rate (T/C) [3, 9]: 57.12%
- tumor growth inhibition rate [3, 9]: 47.33%
- mouse weight compared with the model group ([3]; mouse, in vivo): no significant changes
- Body Weight (g) (d1) ([3]; mouse, in vivo, 25 mg/kg): 21.44 ± 1.45 g
- Body Weight (g) (d30) ([3]; mouse, in vivo, 25 mg/kg): 21.87 ± 0.89 g
- Body Weight (g) (d1) ([3]; mouse, in vivo, 50 mg/kg): 21.79 ± 1.37 g
- Body Weight (g) (d30) ([3]; mouse, in vivo, 50 mg/kg): 22.00 ± 0.94 g
- Body Weight (g) (d1) ([3]; mouse, in vivo, 100 mg/kg): 21.39 ± 1.24 g
- Body Weight (g) (d30) ([3]; mouse, in vivo, 100 mg/kg): 21.88 ± 0.54 g
